Data as given in paper PMC5666756, “Fascaplysin Exerts Anti-Cancer Effects through the Downregulation of Survivin and HIF-1α and Inhibition of VEGFR2 and TRKA” (International Journal of Molecular Sciences, 2017).

Experiments:
Assay type in all cases: biochemical
[1] = molecular target: T1, VEGFR3 (Homo sapiens, UniProt P35916); assay: high-throughput kinase screening assay (IC50, Figure S4)
T1 construct: gene FLT4

[2] = molecular target: T2, TRKA (tropomyosin-related kinase A) (Homo sapiens, UniProt P04629); assay: radiometric kinase assay ([γ-33P]ATP), IC50 at several ATP concentrations, Lineweaver-Burk
T2 construct: gene NTRK1; recombinant human cytoplasmic domain (aa 441–796), C-terminal His-tagged
T2 sequence (P04629 441-796): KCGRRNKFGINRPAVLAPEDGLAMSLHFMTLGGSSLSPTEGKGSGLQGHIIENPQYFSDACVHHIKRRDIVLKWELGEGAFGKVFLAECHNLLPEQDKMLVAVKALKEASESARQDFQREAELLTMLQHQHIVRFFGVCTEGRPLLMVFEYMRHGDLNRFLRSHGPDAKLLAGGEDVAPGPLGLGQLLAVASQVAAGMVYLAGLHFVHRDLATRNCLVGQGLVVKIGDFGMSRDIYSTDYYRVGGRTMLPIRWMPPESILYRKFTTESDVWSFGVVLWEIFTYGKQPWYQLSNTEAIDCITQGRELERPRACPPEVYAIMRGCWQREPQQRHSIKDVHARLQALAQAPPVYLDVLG

[3] = molecular target: T3, VEGFR2 (vascular endothelial growth factor receptor 2) (Homo sapiens, UniProt P35968); assay: as above
T3 construct: gene KDR
T3 sequence (P35968 789-1356): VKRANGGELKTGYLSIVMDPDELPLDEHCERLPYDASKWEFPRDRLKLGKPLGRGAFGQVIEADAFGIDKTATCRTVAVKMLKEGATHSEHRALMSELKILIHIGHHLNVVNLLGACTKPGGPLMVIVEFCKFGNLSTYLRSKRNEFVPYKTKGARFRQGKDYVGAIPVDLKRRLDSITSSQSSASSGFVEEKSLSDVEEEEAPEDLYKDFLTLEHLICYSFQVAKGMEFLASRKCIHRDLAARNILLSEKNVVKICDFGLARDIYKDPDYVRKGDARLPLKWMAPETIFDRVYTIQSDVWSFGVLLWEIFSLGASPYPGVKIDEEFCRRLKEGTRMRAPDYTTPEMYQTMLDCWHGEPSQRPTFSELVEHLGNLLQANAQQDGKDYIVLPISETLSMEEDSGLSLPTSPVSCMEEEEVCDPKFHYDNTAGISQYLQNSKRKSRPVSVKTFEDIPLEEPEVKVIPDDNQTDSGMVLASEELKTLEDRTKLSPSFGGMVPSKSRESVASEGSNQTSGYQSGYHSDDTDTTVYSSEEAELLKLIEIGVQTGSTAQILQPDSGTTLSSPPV
Text: radiometric kinase assay ([γ-33P]ATP), IC50 at several ATP concentrations, Lineweaver-Burk on VEGFR2 (vascular endothelial growth factor receptor 2) | fascaplysin is noncompetitive with respect to ATP against TRKA and VEGFR2

Measured: IC50

T1 sequence (P35916 25-1363): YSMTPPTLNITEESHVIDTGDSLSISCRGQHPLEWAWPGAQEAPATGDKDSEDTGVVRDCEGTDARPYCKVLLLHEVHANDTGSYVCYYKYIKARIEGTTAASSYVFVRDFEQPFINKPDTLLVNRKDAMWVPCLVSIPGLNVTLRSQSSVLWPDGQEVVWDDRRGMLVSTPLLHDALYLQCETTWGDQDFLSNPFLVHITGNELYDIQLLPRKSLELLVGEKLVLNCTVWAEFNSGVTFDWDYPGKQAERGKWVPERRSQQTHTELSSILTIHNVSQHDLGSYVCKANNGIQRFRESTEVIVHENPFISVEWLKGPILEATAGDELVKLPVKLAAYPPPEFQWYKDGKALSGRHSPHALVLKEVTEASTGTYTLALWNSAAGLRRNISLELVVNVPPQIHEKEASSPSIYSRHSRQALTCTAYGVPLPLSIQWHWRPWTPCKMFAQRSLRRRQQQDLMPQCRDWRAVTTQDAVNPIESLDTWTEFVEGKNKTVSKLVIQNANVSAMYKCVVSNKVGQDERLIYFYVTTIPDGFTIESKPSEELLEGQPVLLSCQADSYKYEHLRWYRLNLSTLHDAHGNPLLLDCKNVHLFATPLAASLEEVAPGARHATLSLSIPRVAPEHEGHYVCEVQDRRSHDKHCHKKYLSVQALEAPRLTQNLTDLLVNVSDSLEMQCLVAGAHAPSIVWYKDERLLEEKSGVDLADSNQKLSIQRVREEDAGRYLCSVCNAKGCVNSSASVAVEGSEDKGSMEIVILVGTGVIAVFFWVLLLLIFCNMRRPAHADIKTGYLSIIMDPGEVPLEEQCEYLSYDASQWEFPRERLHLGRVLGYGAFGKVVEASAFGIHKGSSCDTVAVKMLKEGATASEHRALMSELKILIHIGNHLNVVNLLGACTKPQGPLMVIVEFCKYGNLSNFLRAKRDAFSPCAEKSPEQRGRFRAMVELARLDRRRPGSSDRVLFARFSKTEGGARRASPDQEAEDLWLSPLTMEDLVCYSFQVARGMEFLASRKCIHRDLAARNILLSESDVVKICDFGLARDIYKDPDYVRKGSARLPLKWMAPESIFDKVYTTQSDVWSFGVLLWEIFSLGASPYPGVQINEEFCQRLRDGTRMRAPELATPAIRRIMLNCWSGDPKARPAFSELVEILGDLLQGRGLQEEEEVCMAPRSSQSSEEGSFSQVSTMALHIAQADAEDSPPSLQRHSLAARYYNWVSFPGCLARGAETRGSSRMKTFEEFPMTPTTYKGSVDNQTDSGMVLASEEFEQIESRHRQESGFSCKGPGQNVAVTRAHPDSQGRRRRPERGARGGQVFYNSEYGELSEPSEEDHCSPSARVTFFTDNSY

O=C1c2ccccc2-[n+]2ccc3c([nH]c4ccccc43)c21 [Fascaplysin]
2 to 3 µM: all assays above
